Source: patent EP2440195B1, “USE OF ALKYLGLYCEROLS FOR PREPARING DRUGS” (Université de Rennes I, priority 2009, dated 2010)

Experiments:
carcinome de Lewis = test: Antitumour agent Example 2: chemotherapy with PCD/PDD diets, DFMO and alkylglycerol C18:1, Lewis carcinoma graft; format: in vivo, souris C57BL/5
Procedure: Le modèle animal (souris C57BL/5) et le modèle tumoral (carcinome de Lewis) sont décrits précédemment. Les souris sont greffées avec 0,1 ×10^6 cellules tumorales, par injection intramusculaire.
Quatres ensembles d'animaux sont constitués : A, B, C et D. • L'ensemble A est traité avec une monochimiothérapie a forte dose (cyclophosphamide, 90 mg / kg / semaine). • L'ensemble B est traité avec une monochimiothérapie a faible dose (cyclophosphamide, 20 mg / kg / semaine). • L'ensemble C est traité avec une polychimiothérapie combinant trois agents antitumoraux (methotrexate, cyclophosphamide, vindesine). Le premier jour de l'expérience l'ensemble C est traité avec le methotrexate (1,7 mg / kg). Le second jour de l'expérience l'ensemble C est traité avec le cyclophosphamide (20 mg / kg). Le troisième jour de l'expérience l'ensemble C est traité avec la vindesine (0,25 mg/kg). • L'ensemble D est traité avec une solution saline (NaCl, 0,14 M), il s'agit d'un groupe témoin.
Pour chacun des 4 ensembles, les souris sont réparties en 8 groupes (soit 32 groupes au total) en fonction de leurs alimentations : • Le groupe 1a : aliment synthétique contenant des polyamines (PCD), • le groupe 1b : aliment synthétique contenant des polyamines (PCD), et avec une eau contenant du DFMO, • le groupe 1c : aliment synthétique contenant des polyamines (PCD), enrichi en alkylglycérol, • le groupe 1d : aliment synthétique contenant des polyamines (PCD), enrichi en alkylglycérol, et avec une eau contenant du DFMO, • le groupe 2a : aliment synthétique appauvri en polyamines (PDD), • le groupe 2b : aliment synthétique appauvri en polyamines (PDD), et avec une eau contenant du DFMO, • le groupe 2c : aliment synthétique appauvri en polyamines (PDD), enrichi en alkylglycérol, • le groupe 2d : aliment synthétique appauvri en polyamines (PDD), enrichi en alkylglycérol, et avec une eau contenant du DFMO,
L'alkylglycérol est le C 18 :1 (alcool sélachylique) et est mélangé à l'alimentation des souris (25 mg par jour et par souris). Le DFMO est mélangé à l'eau de boisson des souris (30 g/L). […]

[1] = test system: cellules du carcinome pulmonaire de Lewis; test: Survival and tumour growth in mice grafted with Lewis lung carcinoma, five diets (alkylglycerol 18:1 and/or DFMO, normal or polyamine-deficient diet); format: in vivo, souris C57BL/6
Source text: Cette figure représente les variations de volume de tumeurs (en mm^3, indiqués en ordonnées) en fonction du nombre de jours (indiqués en abscisses) écoulés après la greffe de ladite tumeur chez des souris C57BL/6. Les souris sont greffées avec une tumeur solide de cellules du carcinome pulmonaire de Lewis.
(§1) Cette figure représente le pourcentage de survie (en ordonnées) de souris C57BL/6, en fonction du nombre de jours (en abscisses) écoulés après la greffe d'une tumeur solide de cellules du carcinome pulmonaire de Lewis. La représentation utilisée est sous forme de graphique de Kaplan-Meier, le test statistique Log-Rank est utilisé pour la comparaison de la survie (fiabilité p < 0,0001).
(§2) Des souris femelles C57BL/6, âgées de 8 semaines et pesant 20g (élevage Janvier, Le Genest St Isle, France) sont acclimatées 1 semaine avant le début de l'étude. La manipulation des animaux est réalisée en accord avec les directives éthiques pour l'expérimentation et selon les recommandations de l'Association Européenne de Recherche Biomédicale.
(§3) Les cellules de carcinome pulmonaire de Lewis (3LL) ont été obtenues auprès de l'ECACC (European collection of cell cultures) et greffées par injection intramusculaire dans les pattes postérieures de souris femelles C57BL/6 selon la méthode décrite précédemment (Hergueux J. et al., Exp. Cell Biol., 1983, 51(4), 181-191) pour produire des cellules tumorales. Après 20 jours, les cellules tumorales sont collectées et dispersées dans du PBS, comptées et diluées pour atteindre 1 ×10^6 cellules / 100 µL, avant d'être greffées dans les souris.
Le modèle animal (souris C57BL/5) et le modèle tumoral (carcinome de Lewis) sont décrits précédemment. Les souris sont greffées avec […] tumorales, par injection intramusculaire. […]

[2] = test system: cellules du carcinome pulmonaire de Lewis; test: Survival study by diet (PDD or PCD) and alkylglycerol 18:1 or olive oil, Lewis lung carcinoma graft; format: in vivo, souris C57BL/6; conditions: for différence dans la valeur de survie médiane: Log-Rank; for valeur médiane de survie: 25 mice per group
Source text: as §1, with “souris,” for “souris C57BL/6,”, “Lewis. Les souris sont réparties en 2 groupes de 25 individus. Les deux groupes sont alimentés avec des régimes alimentaires différents. Les valeurs médianes de survie sont observées.” for “Lewis.”, “survie.” for “survie (fiabilité p < 0,0001).”
as §2, §3
Au premier jour de l'expérience, 0,1 ×10^6 cellules tumorales sont greffées par injection intramusculaire, à chaque souris. Les souris greffées sont réparties aléatoirement dans les cages par groupe de 25 individus.
Quatre groupes sont constitués, chacun comprenant 25 souris greffées avec des cellules tumorales. Les souris sont réparties dans 8 cages avec 12 à 13 individus par cage. Chaque groupe de souris comprend les individus de deux cages. Chaque groupe de souris est alimenté avec un régime alimentaire différent. La consommation d'aliments est suivie deux fois par semaine, et le nombre de décès deux fois par jour.
Les quatre types de régime alimentaire sont : • régime 1, aliment synthétique appauvri en polyamines (PDD) et enrichi en huile d'olive (20 g / kg d'aliment), • régime 2, aliment synthétique appauvri en polyamines (PDD) et enrichi en alkylglycérol 18 :1 (25 mg par jour et par souris), • régime 3, aliment synthétique contenant des polyamines (PCD), enrichi en huile d'olive (20 g / kg d'aliment), • régime 4, aliment synthétique contenant des polyamines (PCD), enrichi en alkylglycérol 18 :1 (25 mg par jour et par souris).

[3] = test system: néo vascularisation induite par le Matrigel; test: Matrigel plug angiogenesis test (haemoglobin content of the gel, VEGF-induced); format: in vivo, souris C57BL/5; conditions: PDD
Procedure: Cette figure représente le pourcentage de concentration en hémoglobine dans du Matrigel (BD Biosciences) (en ordonnées), 10 jours après injection dudit Matrigel (500µL) à des souris.
La colonne du centre représente les souris témoins ayant été traitées avec du VEGF. Ces souris ont été greffées avec du Matrigel contenant du VEGF (50 ng/mL). Le pourcentage de concentration en hémoglobine est fixé arbitrairement à 100% et sert de référence pour quantifier les pourcentages des deux autres groupes.
La néo vascularisation induite par le Matrigel est dosée suivant une modification de la méthode de Kimura et al. (Cancer Sci. 2004, 95(9), 758-764). En résumé, tous les animaux ont été traités par injection sous-cutanée de Matrigel (500µL) contenant 32 unités/mL d'héparine et éventuellement 50 ng/mL de VEGF (Vascular Endothelial Growth Factor).
Le modèle animal (souris C57BL/5) et le Matrigel sont décrits précédemment.
Le Matrigel est injecté en sous-cutané (500 µL par injection) à trois groupes de 6 souris : • Groupe 1 : Matrigel sans VEGF, régime alimentaire appauvri en polyamines (PDD). • Groupe 2 : Matrigel avec VEGF, régime alimentaire appauvri en polyamines (PDD). • Groupe 3 : Matrigel avec VEGF, régime alimentaire appauvri en polyamines (PDD), enrichi en alkylglycérol 18 :1 (25 mg par jour et par souris)
Dix jours après injection les souris sont euthanasiées et le Matrigel est prélevé, pesé, photographié. Le Matrigel est ensuite dissocié mécaniquement dans du PBS, homogénéisé puis est mis dans une solution de Drabkin's pour le dosage de l'hémoglobine. Les solutions sont déposées dans des puits d'une plaque 96 puits contenant une solution de Drabkin's et lecture dans un lecteur de plaque à 540 nm.
La concentration en hémoglobine observe dans le Matrigel du groupe 2 est fixé arbitrairement à 100% et sert de référence lors des comparaisons avec les résultats obtenus avec les groupes 1 et 3 (Figure 8).

[4] = cyclophosphamide à faible dose (20 mg / kg / semaine), animaux PDD + DFMO (30 g/L)
[5] = régime appauvri en polyamines (PDD), alkylglycérol 18 :1 25 mg / souris / jour and/or DFMO 30 g / L in drinking water, DFMO alone given with huile d'olive

O=P1(N(CCCl)CCCl)NCCCO1 (stereo not shown) [cyclophosphamide]
dissémination métastatique pulmonaire (carcinome de Lewis; [4]): efficace
progression de la greffe tumorale (carcinome de Lewis; [4]): efficace

NCCCC(N)(C(=O)O)C(F)F (racemic) [DFMO, D,L-2-(difluorométhyl)ornithine, reference compound]
valeur médiane de survie [1, 5]: 35 jours

CCCCCCCC/C=C\CCCCCCCCOCC(O)CO (stereo not shown) [alkylglycérol 18 :1, alcool sélachylique]
différence dans la valeur de survie médiane ([2]; C18 :1 (PCD, régime 4) vs huile d'olive (PCD, régime 3), Figure 4): Aucune différence significative
différence dans la valeur de survie médiane ([2]; C18 :1 (PDD, régime 2) vs C18 :1 (PCD, régime 4), Figure 7): Aucune différence significative
différence dans la valeur de survie médiane ([2]; C18 :1 (PDD, régime 2) vs huile d'olive (PCD, régime 3), Figure 5): Aucune différence significative
différence dans la valeur de survie médiane ([2]; C18 :1 (PDD, régime 2) vs huile d'olive (PDD, régime 1), Figure 3): Aucune différence significative
influence sur la durée médiane de survie ([2]; overall conclusion of the four-diet survival study): n'a pas d'influence significative
valeur médiane de survie ([2]; régime appauvri en polyamines (PDD, 10 µg / kg d'aliment), alkylglycérol 18 :1 25 mg / souris / jour or huile d'olive): 26 jours
valeur médiane de survie ([2]; régime contenant des polyamines (PCD, 128 mg / kg d'aliment), alkylglycérol 18 :1 25 mg / souris / jour): 26 jours
effect of C18 :1 intake on the benefit of chemotherapy (carcinome de Lewis; C18 :1 25 mg par jour et par souris added to chemotherapy + PDD + DFMO): amplifie les effets bénéfiques de la chimiothérapie
effet anti angiogénique ([3]; Matrigel with VEGF): observé
réduction de l'angiogénèse ([3]; Matrigel with VEGF, C18 :1 25 mg par jour et par souris, vs VEGF group): ~40%
concentration en hémoglobine dans le Matrigel ([3]; relative to VEGF group (50 ng/mL) fixed at 100%, 10 days after injection, alkylglycérol 18 :1 25 mg par jour et par souris, 6 mice): 58,56%
valeur médiane de survie [1, 5]: 30 jours
valeur médiane de survie ([1]; régime contenant un taux normal de polyamines (PCD), alkylglycérol 18 :1 25 mg / souris / jour, days after tumour graft): 31 jours
